Consider 33 compounds from patent publication US9790213B2, “Imidazoles for the treatment and prophylaxis of respiratory syncytial virus infection” (Hoffmann-La Roche Inc., priority 2015, dated 2017).

The test system of assay [1] is RSV Long strain (ATCC VR-26). Nature of the assay: Viral cytopathic effect (CPE) assay. It counts as cell-based. As to conditions: human respiratory syncytial virus, 120 h, cell viability after 5 days (Cell Counting kit-8). How it is done:
EC50: the concentration of a compound where 50% of its maximal protection effect against viral induced CPE is observed LongStrain: a subtype RSV strain obtained from ATCC with catalog number VR-26 To measure anti-RSV activity of compounds, 96-well plates were seeded with 6×10^3 cells per well in Dulbecco's modified Eagle's medium (DMEM) containing 10% fetal bovine serum (FBS). Cells were infected the next day with sufficient RSV Long strain (ATCC) to produce an approximately 80-90% cytopathic effect after 5 days, in the presence of serial half-log diluted compound in a total volume of 200 μL per well. The viability of cells is assessed after 5 days using Cell Counting kit-8 (Dojindo Molecular Technologies). The absorbance at 450 nm and referenced at 630 nm is measured to determine 50% effective concentration (EC50).
In general terms: Protection from cytopathic effect is a common read-out in antiviral testing.

The test system of assay [2] is RSV. The following applies: two separate Phase III clinical trials, selected high-risk infants, prophylactic use; cited from earlier work.

The EC50 is the concentration at which the effect is half-maximal. Low values mean greater potency, high ones weaker potency.

On to `COc1cc(-c2noc(-c3cn(-c4ccccc4Br)c(C)n3)n2)cc(OC)c1OC` [Example 1-1, 5-(1-(2-Bromophenyl)-2-methyl-1H-imidazol-4-yl)-3-(3,4,5-trimethoxyphenyl)-1,2,4-oxadiazole], for which, in assay [1], the EC50 worked out at 0.78 µM.
Same read-out and setting: in the case of `COc1cc(-c2noc(-c3ncn(-c4ccccc4Br)c3C)n2)cc(OC)c1OC` [Example 1-2, 5-[1-(2-Bromo-phenyl)-5-methyl-1H-imidazol-4-yl]-3-(3,4,5-trimethoxy-phenyl)-[1,2,4]oxadiazole] it was 0.6 µM; in that of `COc1cc(-c2noc(-c3nc(C)n(-c4ccccc4Br)c3C)n2)cc(OC)c1OC` [Example 1-3, 5-(1-(2-Bromophenyl)-2,5-dimethyl-1H-imidazol-4-yl)-3-(3,4,5-trimethoxyphenyl)-1,2,4-oxadiazole], 0.5 µM.
In the case of `COC(=O)c1ccc(-c2noc(-c3nc(C)n(-c4ccccc4Cl)c3C)n2)cc1` [Example 1-4, 4-{5-[1-(2-Chloro-phenyl)-2,5-dimethyl-1H-imidazol-4-yl]-[1,2,4]oxadiazol-3-yl}-benzoic acid methyl ester], the EC50 in assay [1] stood at 4.06 µM. Against the preceding compound, the EC50 is about 8.1-fold higher.
Still for that read-out and setting: as for `COc1cc(-c2noc(-c3ncn(-c4c(C)cccc4C)c3C)n2)cc(OC)c1OC` [Example 1-6, 5-(1-(2,6-Dimethylphenyl)-5-methyl-1H-imidazol-4-yl)-3-(3,4,5-trimethoxyphenyl)-1,2,4-oxadiazole], the figure is 0.51 µM; as for `COc1ccc(OC)c(-c2noc(-c3nc(C)n(-c4ccccc4Br)c3C)n2)c1` [Example 1-7, 5-[1-(2-Bromo-phenyl)-2,5-dimethyl-1H-imidazol-4-yl]-3-(2,5-dimethoxy-phenyl)-[1,2,4]oxadiazole], 0.68 µM; as for `COc1ccc(-c2noc(-c3ncn(-c4c(C)cccc4Cl)c3C)n2)c(OC)c1` [Example 1-8, 5-[1-(2-Chloro-6-methyl-phenyl)-5-dimethyl-1H-imidazol-4-yl]-3-(2,4-dimethoxy-phenyl)-[1,2,4]oxadiazole], 0.193 µM.
On the same count and under the same terms, as for `COc1cc(-c2noc(-c3ncn(-c4c(C)cccc4Cl)c3C)n2)cc(OC)c1OC` [Example 1-9, 5-[1-(2-Chloro-6-methyl-phenyl)-5-methyl-imidazol-4-yl]-3-(3,4,5-trimethoxyphenyl)-1,2,4-oxadiazole], the figure is 0.22 µM.
On the same count and under the same terms, in the case of `COc1ccc(-c2noc(-c3ncn(-c4c(C)cccc4C)c3C)n2)cc1` [Example 1-10, 5-(1-(2,6-Dimethylphenyl)-5-methyl-1H-imidazol-4-yl)-3-(4-methoxyphenyl)-1,2,4-oxadiazol] it was 2.4 µM; in that of `COc1ccc(-c2noc(-c3nc(C)n(-c4ccccc4Cl)c3C)n2)cc1` [Example 1-11, 5-[1-(2-Chloro-phenyl)-2,5-dimethyl-1H-imidazol-4-yl]-3-(4-methoxy-phenyl)-[1,2,4]oxadiazole], 5.07 µM.
`COc1ccc(-c2noc(-c3ncn(-c4c(C)cccc4C)c3C)n2)c(OC)c1` [Example 1-12, 3-(2,4-Dimethoxy-phenyl)-5-[1-(2,6-dimethyl-phenyl)-5-methyl-1H-imidazol-4-yl]-[1,2,4]oxadiazole]: the EC50 in assay [1] turned out to be 0.362 µM. This EC50 lies about 14-fold lower than the previous one.
Compound `COC(=O)c1ccc(-c2noc(-c3nc(C)n(-c4ccccc4Cl)c3C)n2)cc1OC` [Example 1-13, 4-{5-[1-(2-Chloro-phenyl)-2,5-dimethyl-1H-imidazol-4-yl]-[1,2,4]oxadiazol-3-yl}-2-methoxy-benzoic acid methyl ester] registered an EC50 in assay [1] of 2.38 µM.
Same read-out and setting: in the case of `COc1ccccc1-c1noc(-c2nc(C)n(-c3ccccc3Cl)c2C)n1` [Example 1-14, 5-[1-(2-Chloro-phenyl)-2,5-dimethyl-1H-imidazol-4-yl]-3-(2-methoxy-phenyl)-[1,2,4]oxadiazole] it was 0.68 µM; in that of `COc1ccc(-c2noc(-c3ncn(-c4c(C)cccc4Cl)c3C)n2)cc1` [Example 1-15, 5-[1-(2-Chloro-6-methyl-phenyl)-5-methyl-1H-imidazol-4-yl]-3-(4-methoxy-phenyl)-[1,2,4]oxadiazole], 1.74 µM.
In turn, `COc1ccc(-c2noc(-c3nc(C)n(-c4ccccc4Cl)c3C)n2)c(OC)c1` [Example 1-16, 5-[1-(2-Chloro-phenyl)-2,5-dimethyl-1H-imidazol-4-yl]-3-(2,4-dimethoxy-phenyl)-[1,2,4]oxadiazole] had an EC50 in assay [1] of 1.47 µM.
The same measure, in the same setting: in the case of `COc1ccc(OC)c(-c2noc(-c3nc(C)n(-c4ccccc4Cl)c3C)n2)c1` [Example 1-17, 5-(1-(2-chlorophenyl)-2,5-dimethyl-1H-imidazol-4-yl)-3-(2,5-dimethoxy-phenyl)-1,2,4-oxadiazole] it was 1.81 µM; in that of `COc1cc(-c2noc(-c3nc(C)n(-c4ccccc4Cl)c3C)n2)cc(OC)c1OC` [Example 1-18, 5-[1-(2-Chloro-phenyl)-2,5-dimethyl-1H-imidazol-4-yl]-3-(3,4,5-trimethoxy-phenyl)-[1,2,4]oxadiazole], 1.59 µM.
On the same count and under the same terms, as for `COC(=O)c1ccc(-c2noc(-c3nc(C)n(-c4ccccc4Cl)c3C)n2)c(OC)c1` [Example 1-19, 4-{5-[1-(2-Chloro-phenyl)-2,5-dimethyl-1H-imidazol-4-yl]-[1,2,4]oxadiazol-3-yl}-3-methoxy-benzoic acid methyl ester], the figure is 0.92 µM.
Still for that read-out and setting: in the case of `COc1ccc(-c2noc(-c3nc(C)n(-c4ccccc4Cl)c3C)n2)c(F)c1` [Example 1-20, 5-[1-(2-Chloro-phenyl)-2,5-dimethyl-1H-imidazol-4-yl]-3-(2-fluoro-4-methoxy-phenyl)-[1,2,4]oxadiazole] it was 2.99 µM.
Regarding `COC(=O)c1ccc(-c2noc(-c3nc(C)n(-c4ccccc4Cl)c3C)n2)cc1C` [Example 1-21, 4-{5-[1-(2-Chloro-phenyl)-2,5-dimethyl-1H-imidazol-4-yl]-[1,2,4]oxadiazol-3-yl}-2-methyl-benzoic acid methyl ester], in assay [1], the 50% effective concentration (EC50) was found to be 5.31 µM. Compared with the last compound, the EC50 is about 1.8-fold higher.
On the same count and under the same terms, in the case of `COc1cccc(-c2noc(-c3nc(C)n(-c4ccccc4Cl)c3C)n2)c1` [Example 1-22, 5-[1-(2-Chloro-phenyl)-2,5-dimethyl-1H-imidazol-4-yl]-3-(3-methoxy-phenyl)-[1,2,4]oxadiazole] it was 5.96 µM; in that of `COc1ccccc1-n1c(C)nc(-c2nc(-c3cc(OC)c(OC)c(OC)c3)no2)c1C` [Example 1-23, 5-[1-(2-Methoxy-phenyl)-2,5-dimethyl-1H-imidazol-4-yl]-3-(3,4,5-trimethoxy-phenyl)-[1,2,4]oxadiazole], 2.08 µM.
`COc1cc(-c2noc(-c3nc(Br)n(-c4ccccc4Cl)c3C)n2)cc(OC)c1OC` [Example 1-24, 5-[2-Bromo-1-(2-chloro-phenyl)-5-methyl-1H-imidazol-4-yl]-3-(3,4,5-trimethoxy-phenyl)-[1,2,4]oxadiazole] showed an EC50 in assay [1] of 0.78 µM.
The same measure, in the same setting: in the case of `COc1cc(-c2noc(-c3ncc(-c4ccccc4Cl)n3C)n2)cc(OC)c1OC` [Example 1-25, 5-[5-(2-Chlorophenyl)-1-methyl-imidazol-2-yl]-3-(3,4,5-trimethoxyphenyl)-1,2,4-oxadiazole] it was 1.28 µM; in that of `COc1cc(-c2noc(-c3cnc(-c4ccccc4Cl)n3C)n2)cc(OC)c1OC` [Example 1-26, 5-[2-(2-Chlorophenyl)-3-methyl-imidazol-4-yl]-3-(3,4,5-trimethoxyphenyl)-1,2,4-oxadiazole], 2.03 µM; in that of `COc1cc(C(=O)O)ccc1-c1noc(-c2ncn(-c3c(C)cccc3Cl)c2C)n1` [Example 2-1, 4-[5-[1-(2-Chloro-6-methyl-phenyl)-5-methyl-imidazol-4-yl]-1,2,4-oxadiazol-3-yl]-3-methoxy-benzoic acid], 1.85 µM.
The same measure, in the same setting: in the case of `Cc1nc(-c2nc(-c3ccc(C(=O)O)cc3)no2)c(C)n1-c1ccccc1Cl` [Example 2-2, 4-{5-[1-(2-Chloro-phenyl)-2,5-dimethyl-1H-imidazol-4-yl]-[1,2,4]oxadiazol-3-yl}-benzoic acid] it was 3.08 µM; in that of `COc1cc(C(=O)O)ccc1-c1noc(-c2ncn(-c3c(C)cccc3C)c2C)n1` [Example 2-3, 4-{5-[1-(2,6-Dimethyl-phenyl)-5-methyl-1H-imidazol-4-yl]-[1,2,4]oxadiazol-3-yl}-3-methoxy-benzoic acid], 1.97 µM.
Still for that read-out and setting: as for `COc1cc(-c2noc(-c3ncn(-c4c(C)cccc4C)c3C)n2)ccc1C(=O)O` [Example 2-4, 4-{5-[1-(2,6-Dimethyl-phenyl)-5-methyl-1H-imidazol-4-yl]-[1,2,4]oxadiazol-3-yl}-2-methoxy-benzoic acid], the figure is 0.76 µM.
In assay [1], `COc1cc(-c2noc(-c3ncn(-c4c(C)cccc4Cl)c3C)n2)ccc1C(=O)O` [Example 2-5, 4-{5-[1-(2-Chloro-6-methyl-phenyl)-5-methyl-1H-imidazol-4-yl]-[1,2,4]oxadiazol-3-yl}-2-methoxy-benzoic acid] came in with an EC50 of 0.59 µM.
Compound `COc1cc(-c2noc(-c3nc(CO)n(-c4ccccc4Cl)c3C)n2)cc(OC)c1OC` [Example 3-1, (1-(2-Chlorophenyl)-5-methyl-4-(3-(3,4,5-trimethoxyphenyl)-1,2,4-oxadiazol-5-yl)-1H-imidazol-2-yl)methanol] displayed an EC50 in assay [1] of 1.79 µM.
The same measure, in the same setting: in the case of `COc1cc(-c2noc(-c3nc(C(=O)O)n(-c4ccccc4Cl)c3C)n2)cc(OC)c1OC` [Example 3-2, 1-(2-Chlorophenyl)-5-methyl-4-(3-(3,4,5-trimethoxyphenyl)-1,2,4-oxadiazol-5-yl)-1H-imidazole-2-carboxylic acid] it was 4.05 µM.
As for “palivizumab: palivizumab (Synagis, MedImmune), approved for prophylactic use in selected high-risk infants”, the “reduction in hospitalization rate” value in assay [2] was 45-55%.
